Reference: ChEMBL document CHEMBL2074050, “Reversal of MRP-mediated multidrug resistance in human lung cancer cells by the antiprogestatin drug RU486” (Biochem Biophys Res Commun, 1999)
Values belong to the molecule of their own block, whether it stands above or below them.

What was measured:
Format in all cases: functional, cell-based
[1] = biological target: T1, Multidrug resistance-associated protein 1 (Homo sapiens, UniProt P33527); assay: TP_TRANSPORTER: increase in Calcein intracellular accumulation (Calcein: 0.5 uM, RU486: 50 uM) in GLC4/Sb30 cells; conditions: glc4/sb30, 50 µM
T1 sequence (P33527 whole entry): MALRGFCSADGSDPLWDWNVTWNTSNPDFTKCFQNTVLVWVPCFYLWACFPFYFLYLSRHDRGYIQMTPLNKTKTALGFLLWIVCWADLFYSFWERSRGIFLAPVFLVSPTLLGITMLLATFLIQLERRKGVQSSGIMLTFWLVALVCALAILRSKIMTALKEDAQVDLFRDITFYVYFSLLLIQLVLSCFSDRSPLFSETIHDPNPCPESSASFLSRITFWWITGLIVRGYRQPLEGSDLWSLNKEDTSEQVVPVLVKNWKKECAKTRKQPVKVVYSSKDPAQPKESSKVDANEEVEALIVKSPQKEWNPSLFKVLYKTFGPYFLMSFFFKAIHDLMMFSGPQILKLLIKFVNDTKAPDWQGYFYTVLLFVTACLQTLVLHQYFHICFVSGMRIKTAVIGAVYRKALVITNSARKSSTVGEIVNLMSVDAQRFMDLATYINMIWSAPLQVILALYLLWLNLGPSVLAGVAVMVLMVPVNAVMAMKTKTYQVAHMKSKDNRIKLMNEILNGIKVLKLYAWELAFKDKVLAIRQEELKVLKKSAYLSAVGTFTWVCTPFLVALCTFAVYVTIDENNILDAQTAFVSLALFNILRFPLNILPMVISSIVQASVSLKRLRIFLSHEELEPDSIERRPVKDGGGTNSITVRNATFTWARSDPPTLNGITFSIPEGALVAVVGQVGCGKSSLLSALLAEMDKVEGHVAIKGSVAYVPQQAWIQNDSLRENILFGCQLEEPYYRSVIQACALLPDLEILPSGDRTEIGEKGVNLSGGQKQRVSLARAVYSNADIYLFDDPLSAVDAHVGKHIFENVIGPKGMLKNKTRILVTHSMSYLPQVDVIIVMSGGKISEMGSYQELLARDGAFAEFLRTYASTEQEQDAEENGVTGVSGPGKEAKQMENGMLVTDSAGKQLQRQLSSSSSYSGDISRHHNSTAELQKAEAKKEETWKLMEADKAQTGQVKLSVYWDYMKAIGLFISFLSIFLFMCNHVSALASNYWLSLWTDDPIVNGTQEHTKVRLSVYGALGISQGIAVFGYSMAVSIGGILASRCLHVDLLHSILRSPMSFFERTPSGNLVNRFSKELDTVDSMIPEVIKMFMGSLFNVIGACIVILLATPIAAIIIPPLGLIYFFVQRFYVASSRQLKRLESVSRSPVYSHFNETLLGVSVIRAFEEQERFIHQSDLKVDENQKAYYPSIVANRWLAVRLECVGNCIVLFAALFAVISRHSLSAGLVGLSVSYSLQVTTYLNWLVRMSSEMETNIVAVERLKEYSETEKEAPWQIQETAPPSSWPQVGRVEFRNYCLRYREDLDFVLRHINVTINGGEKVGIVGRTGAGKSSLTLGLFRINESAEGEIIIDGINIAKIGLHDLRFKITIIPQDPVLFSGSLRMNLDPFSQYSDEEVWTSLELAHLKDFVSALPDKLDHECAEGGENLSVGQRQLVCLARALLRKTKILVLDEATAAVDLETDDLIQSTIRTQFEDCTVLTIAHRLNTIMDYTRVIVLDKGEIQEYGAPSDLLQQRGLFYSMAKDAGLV

[2] = biological target: T1, Multidrug resistance-associated protein 1; assay: TP_TRANSPORTER: increase in Calcein intracellular accumulation (Calcein: 0.5 uM, Probenecid: 2000 uM) in GLC4/Sb30 cells; conditions: glc4/sb30, 2000 µM
[3] = biological target: T1, Multidrug resistance-associated protein 1; assay: TP_TRANSPORTER: increase in Calcein intracellular accumulation (Calcein: 0.5 uM, Progesterone: 50 uM) in GLC4/Sb30 cells; conditions: glc4/sb30, 50 µM

Activity [1]: inhibitor [+]
Compound: CC#C[C@]1(O)CC[C@H]2[C@@H]3CCC4=CC(=O)CCC4=C3[C@@H](c3ccc(N(C)C)cc3)C[C@@]21C [MIFEPRISTONE]

Activity [2]: inhibitor [+]
Compound: CCCN(CCC)S(=O)(=O)c1ccc(C(=O)O)cc1 [PROBENECID]

Compound: CC(=O)[C@H]1CC[C@H]2[C@@H]3CCC4=CC(=O)CC[C@]4(C)[C@H]3CC[C@]12C [PROGESTERONE]
Activity [3]: inhibitor [+]
